Tests used:
CD11b on CD14+ monocytes = test: CD11b expression levels on CD14+ monocytes in patients treated with TEN-010 (flow cytometry, MESF); assay type: in vivo, human
Excerpt: Patients aged 18 years or older with histologically confirmed advanced solid tumors with progressive disease requiring therapy were enrolled in the study. In particular, patients with histologically confirmed advanced solid malignancy with progressive disease, NMC, or advanced aggressive diffuse large B cell lymphoma (DLBCL) were enrolled in the study. Patients with hemotologic malignancies were not enrolled in the study. TEN-010 was formulated as a sterile, preserved isotonic solution for subcutaneous (SC) administration. A dose of 0.45 mg/kg was administered on Days 1 through 21 (“ON segment”) of each cycle without interruption, followed by a 7-day dose-free interval (“OFF segment”) in a 28-day treatment cycle. Injections were rotated amongst several sites including bilateral upper arms and thighs and mid and lower abdomen and buttocks. Whole blood specimens were collected at specified time points (e.g., see FIG. 1) in sodium heparin vacutainers. Briefly, two 12×75 mm test tubes per donor were labeled with specimen ID and appropriate cocktail name (see Table 2 below). 100 μl of sodium heparin anticoagulated whole blood was pipetted into the test tubes. The appropriate titrated volume of antibody cocktails was pipetted into the correspondingly labeled tubes. The appropriate titrated amount of CD14 PerCP, was added to all tubes to identify CD14 positive monocytes. The tubes were vortexed and were allowed to incubate for 30 minutes at room temperature in the dark. The red blood cells were lysed by adding 4 ml of an ammonium chloride-based whole blood lysing reagent to each tube. The tubes were capped and inverted to mix well prior to incubating in the dark at room temperature for 5 minutes. After the incubation, the tubes were centrifuged at 400 RCF for 5 minutes, the supernatant decanted and the tubes rack-raked to disperse cell pellet. The cells were washed with 2 ml of PBS with 1% BSA and centrifuged. To detect biotin conjugated CD45 RO antibody, the appropriate titrated amount of SA-BV605 (streptavidin (SA) conjugated to brilliant violet (BV) 605) was added to each tube and tubes were vortexed. After a 20 minute incubation in the dark at room temperature, the cells were washed with 2 ml of PBS with 1% BSA and centrifuged. The supernatant was decanted and the cells were rack-raked to disperse the cell pellet. Each tube received 500 μl of 1% paraformaldehyde and stored at 2-8 C until acquisition on the day of preparation. The tubes were acquired on a Becton Dickinson (BD) FACSCanto™ II flow cytometer with appropriate instrument settings, acquiring approximately 250,000 total events per tube. All analyses for flow cytometry were performed on WinList 7.0 (Verity Software House, Topsham, Me.) with a direct data exchange link to Microsoft® Excel 2003 or equivalent. For FIG. 1, baseline value (pre-dose at cycle 1, day 1, i.e., C1D1) was set at an arbitrary MESF value (e.g., 100) for each patient; all subsequent values obtained from the study were normalized to the baseline value. For FIG. 2, unnormalized MESF values are shown.

[1] = test system: lactate dehydrogenase (LDH); test: LDH levels in patients treated with TEN-010; assay type: in vivo, human; conditions: non-NMC patient 002-021 (FIG. 2B), despite significant rise in CD11b levels
Excerpt: Patients aged 18 years or older with histologically confirmed advanced solid tumors with progressive disease requiring therapy were enrolled in the study. In particular, patients with histologically confirmed advanced solid malignancy with progressive disease, NMC, or advanced aggressive diffuse large B cell lymphoma (DLBCL) were enrolled in the study. Patients with hemotologic malignancies were not enrolled in the study.
TEN-010 was formulated as a sterile, preserved isotonic solution for subcutaneous (SC) administration. A dose of 0.45 mg/kg was administered on Days 1 through 21 (“ON segment”) of each cycle without interruption, followed by a 7-day dose-free interval (“OFF segment”) in a 28-day treatment cycle. Injections were rotated amongst several sites including bilateral upper arms and thighs and mid and lower abdomen and buttocks.
LDH levels were measured using standard protocols, using a chemistry analyzer, e.g., Beckman Coulter. See, e.g., Lactate OSR6193 procedure published March 2012 (webcache.googleuserconent.com/search?q=cache:iyYi7vCetH4J:https://www.beckmancoulter.com/wsrportal/techdocs%3Fdocname%3D/cis/BAOSR6x93%2525%2525/EN_LACTATE_BAOSR6x93_US.doc+&cd=2&hl=en&ct=clnk&gl=us), incorporated by reference in its entirety.

[2] = test system: bromodomains of the BET family; conditions: Bres et al. 2008; cited from earlier work

Structure (SMILES) | CD11b levels following the off-drug segment (C2D1) (CD11b on CD14+ monocytes; NMC patient 004-001) | effectiveness by C2D1 (CD11b on CD14+ monocytes; NMC patient 004-001, suggested by CD11b increase, patient died shortly thereafter) | decrease of CD11b levels relative to baseline value (CD11b on CD14+ monocytes; all 6 patients, 0.45 mg/kg SC Days 1-21 of 28-day cycle, by C1D15 vs pre-dose C1D1) | CD11b levels at start of second cycle (C2D1) (CD11b on CD14+ monocytes; all patients except NMC patient 004-001, after 21 days on-drug and 7 days off-drug) | CD11b levels (CD11b on CD14+ monocytes; non-NMC patient 002-021 (FIG. 2B)) | LDH levels [1] | binding to bromodomains of the BET family [2]
Cc1sc2c(c1C)C(c1ccc(Cl)cc1)=N[C@@H](CC(=O)NCCCN1CCN(C)CC1)c1nnc(C)n1-2 [TEN-010] | dramatically increased | not effective | at least 50% | held steady | significant rise | remained constant | 
Cc1sc2c(c1C)C(c1ccc(Cl)cc1)=N[C@@H](CC(=O)OC(C)(C)C)c1nnc(C)n1-2 [JQ1] |  |  |  |  |  |  | specifically binds
